Laboratory results reported in US20260209220A1, “SUBSTITUTED TETRAHYDROPYRROLO-PYRIDINONE COMPOUNDS AND THEIR USE IN TREATING MEDICAL CONDITIONS” (Karuna Therapeutics, Inc., priority 2022, published 2026).

Legend:
hM4 receptors = molecular target: T1, hM4 receptors (Homo sapiens, UniProt P08173); experiment: Human M4 PAM PERK assay (CHO cells, TR-FRET, with EC20 acetylcholine); type: cell-based
T1 construct: expressed in transfected cells; host or cells: CHO cells
T1 sequence (P08173 1-479): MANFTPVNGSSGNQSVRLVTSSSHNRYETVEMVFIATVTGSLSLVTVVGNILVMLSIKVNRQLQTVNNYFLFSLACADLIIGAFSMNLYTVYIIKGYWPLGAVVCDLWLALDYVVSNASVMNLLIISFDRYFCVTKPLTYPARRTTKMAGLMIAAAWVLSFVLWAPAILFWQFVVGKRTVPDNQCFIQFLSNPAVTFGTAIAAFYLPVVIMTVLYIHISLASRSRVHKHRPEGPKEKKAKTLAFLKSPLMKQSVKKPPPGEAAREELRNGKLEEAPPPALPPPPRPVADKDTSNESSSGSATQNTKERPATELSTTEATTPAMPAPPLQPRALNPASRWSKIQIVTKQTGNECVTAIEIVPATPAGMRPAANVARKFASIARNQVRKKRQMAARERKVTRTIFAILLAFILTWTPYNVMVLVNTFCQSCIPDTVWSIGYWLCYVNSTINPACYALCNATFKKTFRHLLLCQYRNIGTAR
Procedure: (§1) Chinese hamster ovary (CHO) cells expressing either hM4 or rM4 receptors were frozen in assay ready vials (5×10^6 cells/vial) after bulking-up in culture. The day before an assay, vial(s) were thawed and cells seeded in 384 well white proxiplates at 1000/well for hM4 cells and at 2000/well for rM4 cells, in 10 μL of growth media (Hams/F12 with glutamax and 10% FCS) and incubated overnight at 37° C./5% CO2.
(§2) On the following morning, the growth media was removed by ‘flicking out’ over a bin, patting the inverted plate onto tissue, and then replacing with 10 μL of wash media (Hams/F12 with glutamax and 8 mM HEPES, NB: serum free). Then, the wash media was removed in the same way and replaced with 8 μL/well of the serum free media. Plates were then re-incubated for a further 4 hours at 37° C./5% CO2.
(§3) Compounds for testing were solubilized to 10 mM in DMSO and compound addition plates, consisting of ten-point concentration response curves (CRC) in duplicate points (10 μM top concentration, ½ log dilution series), were prepared by acoustic dispensing and the compound management group.
(§4) After the 4-hour incubation in serum free media, a 4 μL aliquot of the 3×compound solution containing an EC20 of acetylcholine (10 nM final concentration) was added to the cell plate using a 384 well plate to plate transfer. Then, the plate lid was replaced, and the cells incubated for 5 mins at 37° C./5% CO2. Following this final incubation, all cellular processes were stopped by the addition of 4 μL/well of lysis and blocking buffer and plates were incubated for 30 minutes at RT on an orbital shaker (gentle setting). Then, a final addition of 4 μL/well of antibody detection mix, containing both the Europium-Cryptate (donor) and d2 (acceptor) tagged detection components, was added followed by a further 2-hour incubation at RT, and then the plate was read using a TR-FRET (time resolved fluorescence resonance energy transfer) based protocol.

rM4 receptors = molecular target: T2, rM4 receptors (Rattus norvegicus, UniProt P08485); experiment: Rat M4 PAM PERK assay (CHO cells, TR-FRET, with EC20 acetylcholine); type: cell-based
T2 construct: expressed in transfected cells; host or cells: CHO cells
T2 sequence (P08485 1-478): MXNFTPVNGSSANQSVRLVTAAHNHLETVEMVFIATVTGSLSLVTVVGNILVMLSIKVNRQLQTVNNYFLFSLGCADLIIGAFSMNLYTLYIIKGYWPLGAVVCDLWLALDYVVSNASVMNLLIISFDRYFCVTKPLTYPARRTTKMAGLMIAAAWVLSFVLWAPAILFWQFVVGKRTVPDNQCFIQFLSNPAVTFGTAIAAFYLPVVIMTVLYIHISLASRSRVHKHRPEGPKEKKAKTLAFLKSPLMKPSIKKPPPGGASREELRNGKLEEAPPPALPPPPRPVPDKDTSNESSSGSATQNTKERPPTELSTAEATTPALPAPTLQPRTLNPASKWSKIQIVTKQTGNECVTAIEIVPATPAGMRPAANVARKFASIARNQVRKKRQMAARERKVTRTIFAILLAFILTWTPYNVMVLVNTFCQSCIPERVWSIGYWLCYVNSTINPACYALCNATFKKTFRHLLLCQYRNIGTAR
Procedure: as §1, §2, §3, §4

Row | EC50 (hM4 receptors) | EC50 (rM4 receptors) | Structure (SMILES)
1 | < 50 nM | 50 to 200 nM | Cc1c2c(n(C)c(=O)c1C)CN(C(=O)CC1CN(c3cccc(F)c3F)C1)C2 [Compound I-48]
2 | < 50 nM | 50 to 200 nM | Cc1c2c(n(C)c(=O)c1F)CN(C(=O)CC1CN(c3cccc(F)c3F)C1)C2 [Compound I-87]
3 | 50 to 200 nM | > 1000 nM | Cc1c2c(n(C)c(=O)c1C(F)(F)F)CN(C(=O)CC1CN(c3cccnc3)C1)C2 [Compound I-108, 1,4-Dimethyl-6-(2-(1-(pyridin-3-yl)azetidin-3-yl)acetyl)-3-(trifluoromethyl)-1,5,6,7-tetrahydro-2H-pyrrolo[3,4-b]pyridin-2-one]
4 | < 50 nM | 50 to 200 nM | Cc1c2c(n(C)c(=O)c1Cl)CN(C(=O)CC1CN(c3cccc(C(F)(F)F)c3)C1)C2 [Compound I-73]
5 | < 50 nM | 200 to 1000 nM | COc1cncc(N2CC(CC(=O)N3Cc4c(C)cc(=O)n(C)c4C3)C2)c1 [Compound I-15]
6 | 200 to 1000 nM | > 1000 nM | CSc1c2c(n(C)c(=O)c1C)CN(C(=O)CC1CN(c3ccnc(C(F)(F)F)c3)C1)C2 [Compound I-104, 1,3-Dimethyl-4-(methylthio)-6-(2-(1-(2-(trifluoromethyl)pyridin-4-yl)azetidin-3-yl)acetyl)-1,5,6,7-tetrahydro-2H-pyrrolo[3,4-b]pyridin-2-one]
7 | < 50 nM | > 1000 nM | COc1c2c(n(C)c(=O)c1C)CN(C(=O)CC1CN(c3ccncn3)C1)C2 [Compound I-98]
8 | 50 to 200 nM | > 1000 nM | Cc1cc(=O)n(C)c2c1CN(C(=O)CC1CN(c3ccc(S(C)(=O)=O)cc3)C1)C2 [Compound I-2, 1,4-Dimethyl-6-(2-(1-(4-(methylsulfonyl)phenyl)azetidin-3-yl)acetyl)-1,5,6,7-tetrahydro-2H-pyrrolo[3,4-b]pyridin-2-one]
9 | 200 to 1000 nM | 200 to 1000 nM | COc1cc(N2CC(CC(=O)N3Cc4c(C)c(C)c(=O)n(C)c4C3)C2)cc(C(F)(F)F)n1 [Compound I-54]
10 | > 1000 nM | 200 to 1000 nM | Cc1cc(=O)n(CC(F)(F)F)c2c1CN(C(=O)CC1CN(c3ccc(C(F)(F)F)cc3)C1)C2 [Compound I-105, 4-Methyl-1-(2,2,2-trifluoroethyl)-6-(2-(1-(4-(trifluoromethyl)phenyl)azetidin-3-yl)acetyl)-1,5,6,7-tetrahydro-2H-pyrrolo[3,4-b]pyridin-2-one]
11 | 50 to 200 nM | 200 to 1000 nM | Cc1c2c(n(C)c(=O)c1C1CC1)CN(C(=O)CC1CN(c3ccnc(C(F)(F)F)c3)C1)C2 [Compound I-109, 3-Cyclopropyl-1,4-dimethyl-6-(2-(1-(2-(trifluoromethyl)pyridin-4-yl)azetidin-3-yl)acetyl)-1,5,6,7-tetrahydro-2H-pyrrolo[3,4-b]pyridin-2-one]
12 | < 50 nM | 50 to 200 nM | Cc1c2c(n(C)c(=O)c1Cl)CN(C(=O)CC1CN(c3cnccn3)C1)C2 [Compound I-72]
13 | > 1000 nM | > 1000 nM | Cc1cc(=O)n(C)c2c1C(C)N(C(=O)CC1CN(c3ccnc(C(F)(F)F)c3)C1)C2 (racemic) [Compound I-113, (±)-1,4,5-Trimethyl-6-(2-(1-(2-(trifluoromethyl)pyridin-4-yl)azetidin-3-yl)acetyl)-1,5,6,7-tetrahydro-2H-pyrrolo[3,4-b]pyridin-2-one]
14 | 200 to 1000 nM | > 1000 nM | Cc1cc(=O)n(C2CC2)c2c1CN(C(=O)CC1CN(c3ccnc(C(F)(F)F)c3)C1)C2 [Compound I-103, 1-Cyclopropyl-4-methyl-6-(2-(1-(2-(trifluoromethyl)pyridin-4-yl)azetidin-3-yl)acetyl)-1,5,6,7-tetrahydro-2H-pyrrolo[3,4-b]pyridin-2-one]
15 | 50 to 200 nM | > 1000 nM | Cc1cc2c(n(C)c1=O)CN(C(=O)CC1CN(c3ccnc(C(F)(F)F)c3)C1)C2 [Compound I-112, 1,3-Dimethyl-6-(2-(1-(2-(trifluoromethyl)pyridin-4-yl)azetidin-3-yl)acetyl)-1,5,6,7-tetrahydro-2H-pyrrolo[3,4-b]pyridin-2-one]
16 | 200 to 1000 nM | 200 to 1000 nM | Cc1c2c(n(CC(F)(F)F)c(=O)c1Cl)CN(C(=O)CC1CN(c3ccccc3)C1)C2 [Compound I-94]
17 | 50 to 200 nM | 200 to 1000 nM | Cc1c2c(n(CC(F)(F)F)c(=O)c1Cl)CN(C(=O)CC1CN(c3cncnc3)C1)C2 [Compound I-96]
18 | < 50 nM | 200 to 1000 nM | Cc1c2c(n(C)c(=O)c1Br)CN(C(=O)CC1CN(c3ccnc(C(F)(F)F)c3)C1)C2 [Compound I-110, 3-Bromo-1,4-dimethyl-6-(2-(1-(2-(trifluoromethyl)pyridin-4-yl)azetidin-3-yl)acetyl)-1,5,6,7-tetrahydro-2H-pyrrolo[3,4-b]pyridin-2-one]
19 | 200 to 1000 nM | 200 to 1000 nM | Cc1cc(=O)n(C)c2c1CN(C(=O)CC1CN(c3ccncn3)C1)C2 [Compound I-6]
20 | > 1000 nM | > 1000 nM | Cc1c2c(n(C)c(=O)c1Cl)CN(C(=O)C(C)C1CN(c3ccnc(C(F)(F)F)c3)C1)C2 (single isomer, unassigned) [Compound I-83, 3-Chloro-1,4-dimethyl-6-(2-(1-(2-(trifluoromethyl)pyridin-4-yl)azetidin-3-yl)propanoyl)-1,5,6,7-tetrahydro-2H-pyrrolo[3,4-b]pyridin-2-one]
21 | < 50 nM | > 1000 nM | Cc1cc(=O)n(C)c2c1CN(C(=O)CC1CN(c3ccc(C(F)(F)F)cc3)C1)C2 [Compound I-5]
22 | < 50 nM | < 50 nM | Cc1c2c(n(C)c(=O)c1C)CN(C(=O)CC1CN(c3ccc(C4CC4)c(F)c3)C1C)C2 (stereo not drawn) [Compound I-60, 6-(2-(1-(4-Cyclopropyl-3-fluorophenyl)-2-methylazetidin-3-yl)acetyl)-1,3,4-trimethyl-1,5,6,7-tetrahydro-2H-pyrrolo[3,4-b]pyridin-2-one]
23 | < 50 nM | 200 to 1000 nM | Cc1c2c(n(C)c(=O)c1Cl)CN(C(=O)CC1CN(c3ccccc3)C1)C2 [Compound I-71]
24 | 50 to 200 nM | 200 to 1000 nM | Cc1c2c(n(C)c(=O)c1C#N)CN(C(=O)CC1CN(c3ccnc(C(F)(F)F)c3)C1)C2 [Compound I-111, 1,4-Dimethyl-2-oxo-6-(2-(1-(2-(trifluoromethyl)pyridin-4-yl)azetidin-3-yl)acetyl)-2,5,6,7-tetrahydro-1H-pyrrolo[3,4-b]pyridine-3-carbonitrile]
25 | < 50 nM | > 1000 nM | Cc1c2c(n(C)c(=O)c1Cl)CN(C(=O)CC1CN(c3ccnnc3)C1)C2 [Compound I-81, 3-Chloro-1,4-dimethyl-6-(2-(1-(pyridazin-4-yl)azetidin-3-yl)acetyl)-1,5,6,7-tetrahydro-2H-pyrrolo[3,4-b]pyridin-2-one]
26 | 50 to 200 nM | 50 to 200 nM | Cc1c2c(n(C)c(=O)c1F)CN(C(=O)CC1CN(c3ccc(F)c(C(F)(F)F)c3)C1)C2 [Compound I-89]
27 | < 50 nM | 50 to 200 nM | Cc1c2c(n(C)c(=O)c1Cl)CN(C(=O)CC1CN(c3cncnc3)C1)C2 [Compound I-69]
28 | 50 to 200 nM | 200 to 1000 nM | COc1cccc(N2CC(CC(=O)N3Cc4c(C)c(C)c(=O)n(C)c4C3)C2)c1 [Compound I-47]
29 | < 50 nM | 50 to 200 nM | Cc1c2c(n(C)c(=O)c1Cl)CN(C(=O)CC1CN(c3cccnc3)C1)C2 [Compound I-67]
30 | < 50 nM | 200 to 1000 nM | Cc1c2c(n(C)c(=O)c1Cl)CN(C(=O)CC1CN(c3ccncn3)C1)C2 [Compound I-70]
